Legend:
[1] = xn = mol fraction of the nth substance listed; conditions: 101 kPa, Liquid; for viscosity: Falling or rolling sphere viscometry; for speed of sound: Sing-around technique in a fixed-path interferometer; for mass density: Vibrating tube method
[2] = molar heat capacity at constant pressure; xn = mol fraction of the nth substance listed; conditions: 101 kPa, Liquid, DSC

CC12CCC(CC1)C(C)(C)O2 [1,3,3-trimethyl-2-oxabicyclo[2.2.2]octane] + CCCCCCCCCC
Conditions	mass density, [1] [kg/m3]	molar heat capacity at constant pressure, [2] [J/K/mol]	speed of sound, [1] [m/s]	viscosity, [1] [mPa·s]
278.15 K, x1 = 0.1066	758.86	299.16	1315.5	1.29
278.15 K, x1 = 0.2007	775.04	293.5	1316.6	1.39
278.15 K, x1 = 0.2965	792.05	287.99	1318.2	1.5
278.15 K, x1 = 0.4063	812.26	282.04	1321.2	1.66
278.15 K, x1 = 0.5005	830.26	277.25	1324.7	1.82
278.15 K, x1 = 0.5959	849.15	272.59	1329	2.05
278.15 K, x1 = 0.7007	870.67	267.96	1335	2.39
278.15 K, x1 = 0.7989	891.66	263.81	1341.8	2.86
278.15 K, x1 = 0.8956	913.12	259.87	1349.5	3.41
278.15 K, x1 = 1	937.25	256.14	1359.6	4.21
298.15 K, x1 = 0.1066	743.66	308.32	1235.6	0.93
298.15 K, x1 = 0.2007	759.71	303.12	1237	1
298.15 K, x1 = 0.2965	776.57	298.17	1239.1	1.07
298.15 K, x1 = 0.4063	796.58	292.62	1242.3	1.16
298.15 K, x1 = 0.5005	814.39	288.12	1245.7	1.26
298.15 K, x1 = 0.5959	833.07	283.78	1250	1.41
298.15 K, x1 = 0.7007	854.34	279.2	1255.6	1.61
298.15 K, x1 = 0.7989	875.07	275.24	1261.9	1.86
298.15 K, x1 = 0.8956	896.24	271.44	1269.3	2.16
298.15 K, x1 = 1	920.04	267.69	1278.4	2.6
318.15 K, x1 = 0.1066	728.29	318.26	1157.5	0.71
318.15 K, x1 = 0.2007	744.21	313.35	1159.5	0.75
318.15 K, x1 = 0.2965	760.92	308.63	1162	0.81
318.15 K, x1 = 0.4063	780.75	303.32	1165.5	0.87
318.15 K, x1 = 0.5005	798.4	298.96	1169.1	0.93
318.15 K, x1 = 0.5959	816.88	294.7	1173.4	1.02
318.15 K, x1 = 0.7007	837.92	290.19	1179	1.14
318.15 K, x1 = 0.7989	858.42	286.17	1184.9	1.29
318.15 K, x1 = 0.8956	879.33	282.47	1192.3	1.48
318.15 K, x1 = 1	902.84	278.65	1201	1.73
338.15 K, x1 = 0.1066	712.7	328.92	1081.8	0.58
338.15 K, x1 = 0.2007	728.49	324.19	1083.9	0.6
338.15 K, x1 = 0.2965	745.06	319.65	1087.1	0.64
338.15 K, x1 = 0.4063	764.73	314.6	1091.2	0.69
338.15 K, x1 = 0.5005	782.2	310.38	1094.9	0.73
338.15 K, x1 = 0.5959	800.51	306.21	1099.3	0.79
338.15 K, x1 = 0.7007	821.36	301.78	1105.3	0.88
338.15 K, x1 = 0.7989	841.62	297.82	1111.3	0.98
338.15 K, x1 = 0.8956	862.32	294.23	1118.5	1.1
338.15 K, x1 = 1	885.57	290.33	1126.7	1.27
